Values quoted from earlier work, collected in US10004754B2, “ANP fragment adjuvant therapy to standard of care (SOC) diuretic treatment” (MADELEINE PHARMACEUTICALS PTY LTD, priority 2014, dated 2018).

Tested on: ADCHF patients
Conditions: cited from earlier work

For “nesiritide: A recombinant form of human BNP, approved by the FDA for the treatment of ADCHF”, the “diuresis in ADCHF patients” value (Gottlieb, 2013) is listed as “does not increase diuresis” and the “patient mortality or re-hospitalisation rate” value (O'Conner et al., 2011) is listed as “not associated with a change”.
